The values that follow come from PubChem BioAssay AID328 (DTP/NCI, 2004).

The subject of this assay is BDF1 mice, P388 leukemia ip, median survival T/C. In words: NCI In Vivo Anticancer Drug Screen. Data for tumor model P388 Leukemia (intraperitoneal) in B6D2F1 (BDF1) mice. The conditions noted are these: endpoint: median survival time, higher = longer survival. The method, boiled down:
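Mice carrying the transplantable tumour receive compound or vehicle. Survival is followed in each arm, and the treated measure is divided by the vehicle measure.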

Setting [1] is: dose: 50.0 mg/kg/injection, schedule: Q04DX003 (ip), vehicle: other.
Setting [2] is: dose: 100.0 mg/kg/injection, schedule: Q04DX003 (ip), vehicle: other.
Where [3] appears, read: dose: 50.0 mg/kg/injection, schedule: Q04DX003 (ip), vehicle: saline with Tween-80.
[4] abbreviates: dose: 100.0 mg/kg/injection, schedule: Q04DX003 (ip), vehicle: saline with Tween-80.
Setting [5] is: dose: 200.0 mg/kg/injection, schedule: Q04DX003 (ip), vehicle: saline with Tween-80.
The mark [6] stands for this setting: dose: 400.0 mg/kg/injection, schedule: Q04DX003 (ip), vehicle: saline with Tween-80.
Where [7] appears, read: dose: 100.0 mg/kg/injection, schedule: Q04DX003 (ip), vehicle: Klucel (hydroxypropylcellulose) (HPC).
[8] abbreviates: dose: 200.0 mg/kg/injection, schedule: Q04DX003 (ip), vehicle: Klucel (hydroxypropylcellulose) (HPC).

Values joined by “and” are separate entries in the source; they are usually repeats but may differ in a detail not shown here. Equal entries are not always repeated. Toxic doses and inconclusive results are not listed.

`C[NH-].C[NH-].[I][Pt+2][I]`: the T/C is 120 % of control (dose: 1.56 mg/kg/injection, schedule: Q04DX003 (ip), vehicle: other); 120 % of control (dose: 3.12 mg/kg/injection, schedule: Q04DX003 (ip), vehicle: other); 163 % of control (dose: 6.25 mg/kg/injection, schedule: Q04DX003 (ip), vehicle: other); 163 % of control (dose: 12.5 mg/kg/injection, schedule: Q04DX003 (ip), vehicle: other); 154 % of control under setting [1]; 116 % of control under setting [2].
As for `Cc1ccc(N2CCOC2=O)cc1N1CCOC1=O`, the T/C reads like this: (dose: 25.0 mg/kg/injection, schedule: Q01DX009 (ip), vehicle: other) 100 % of control; (dose: 25.0 mg/kg/injection, schedule: Q04DX003 (ip), vehicle: other) 109 % of control; (dose: 50.0 mg/kg/injection, schedule: Q01DX009 (ip), vehicle: other) 100 % of control; under setting [1], 100 % of control; (dose: 100.0 mg/kg/injection, schedule: Q01DX009 (ip), vehicle: other) 109 % of control; under setting [2], 100 % of control.
Regarding `CCOC(=O)C1(C(C)C)OC2CCCCCN2C1=O` (centres undefined), the T/C by setting is: under setting [3], 100 % of control; under setting [4], 108 % of control; under setting [5], 100 % of control; under setting [6], 108 % of control.
For `CCc1ccccc1NC(=O)c1ccccc1Cl`, the T/C is, setting by setting: under setting [2], 109 % of control; (dose: 200.0 mg/kg/injection, schedule: Q04DX003 (ip), vehicle: other) 104 % of control; (dose: 400.0 mg/kg/injection, schedule: Q04DX003 (ip), vehicle: other) 90 % of control.
Consider `Cc1cc(N(CCCl)CCCl)ccc1C=NC1CCCC1`, for which the T/C runs as follows: (dose: 100.0 mg/kg/injection, schedule: Q01DX009 (ip), vehicle: Klucel (hydroxypropylcellulose) (HPC)) 150 % of control; under setting [7], 95 % of control; (dose: 133.0 mg/kg/injection, schedule: Q01DX009 (ip), vehicle: Klucel (hydroxypropylcellulose) (HPC)) 169 % of control; (dose: 200.0 mg/kg/injection, schedule: Q01DX009 (ip), vehicle: Klucel (hydroxypropylcellulose) (HPC)) 188 % of control and 200 % of control; under setting [8], 108 % of control.
Turning to `CCCCn1nnc2c(NN)nc(N)nc21`, the T/C by setting is: (dose: 25.0 mg/kg/injection, schedule: Q01DX009 (ip), vehicle: saline with Tween-80) 100 % of control; (dose: 25.0 mg/kg/injection, schedule: Q04DX003 (ip), vehicle: saline with Tween-80) 100 % of control; (dose: 50.0 mg/kg/injection, schedule: Q01DX009 (ip), vehicle: saline with Tween-80) 100 % of control; under setting [3], 100 % of control; under setting [4], 100 % of control.
Turning to `CC(=O)OCC(C)OC(C)=O` (centres undefined), the T/C (dose: 100.0 mg/kg/injection, schedule: Q01DX009 (ip), vehicle: saline) was 91 % of control; the T/C (dose: 100.0 mg/kg/injection, schedule: Q04DX003 (ip), vehicle: saline) is 100 % of control; the T/C (dose: 200.0 mg/kg/injection, schedule: Q01DX009 (ip), vehicle: saline) was 112 % of control; the T/C (dose: 200.0 mg/kg/injection, schedule: Q04DX003 (ip), vehicle: saline) is 100 % of control; the T/C (dose: 400.0 mg/kg/injection, schedule: Q04DX003 (ip), vehicle: saline) is 96 % of control.
Regarding `CSc1ccccc1C=O`, the T/C is 95 % of control under setting [7]; 100 % of control under setting [8]; 112 % of control (dose: 400.0 mg/kg/injection, schedule: Q04DX003 (ip), vehicle: Klucel (hydroxypropylcellulose) (HPC)).
For the compound `O=C1NC(Cc2ccc(N(CCCl)CCCl)cc2)C(=O)O1` (centres undefined), the T/C by setting is: (dose: 0.06 mg/kg/injection, schedule: Q01DX009 (ip), vehicle: saline with Tween-80) 104 % of control; (dose: 0.12 mg/kg/injection, schedule: Q01DX009 (ip), vehicle: saline with Tween-80) 150 % of control; (dose: 0.2 mg/kg/injection, schedule: Q04DX003 (ip), vehicle: saline with Tween-80) 100 % of control; (dose: 0.25 mg/kg/injection, schedule: Q01DX009 (ip), vehicle: saline with Tween-80) 159 % of control; (dose: 0.3 mg/kg/injection, schedule: Q04DX003 (ip), vehicle: saline with Tween-80) 112 % of control; (dose: 0.5 mg/kg/injection, schedule: Q01DX009 (ip), vehicle: saline with Tween-80) 168 % of control. The T/C was 112 % of control (dose: 0.5 mg/kg/injection, schedule: Q04DX003 (ip), vehicle: saline with Tween-80); 154 % of control (dose: 0.8 mg/kg/injection, schedule: Q04DX003 (ip), vehicle: saline with Tween-80); 163 % of control (dose: 1.0 mg/kg/injection, schedule: Q04DX003 (ip), vehicle: saline with Tween-80); 159 % of control (dose: 1.3 mg/kg/injection, schedule: Q04DX003 (ip), vehicle: saline with Tween-80); 230 % of control (dose: 2.0 mg/kg/injection, schedule: Q01DX009 (ip), vehicle: saline with Tween-80); 168 % of control and 172 % of control (dose: 2.0 mg/kg/injection, schedule: Q04DX003 (ip), vehicle: saline with Tween-80). In addition, the T/C by setting is: (dose: 3.0 mg/kg/injection, schedule: Q04DX003 (ip), vehicle: saline with Tween-80) 200 % of control; (dose: 3.4 mg/kg/injection, schedule: Q04DX003 (ip), vehicle: saline with Tween-80) 150 % of control; (dose: 4.5 mg/kg/injection, schedule: Q04DX003 (ip), vehicle: saline with Tween-80) 222 % of control; (dose: 5.2 mg/kg/injection, schedule: Q04DX003 (ip), vehicle: saline with Tween-80) 154 % of control; (dose: 5.5 mg/kg/injection, schedule: Q01DX009 (ip), vehicle: saline with Tween-80) 230 % of control; (dose: 8.0 mg/kg/injection, schedule: Q01DX009 (ip), vehicle: saline with Tween-80) 230 % of control. For the same compound, the T/C by setting is: (dose: 8.0 mg/kg/injection, schedule: Q04DX003 (ip), vehicle: saline with Tween-80) 195 % of control; (dose: 12.0 mg/kg/injection, schedule: Q01DX009 (ip), vehicle: saline with Tween-80) 115 % of control; (dose: 27.0 mg/kg/injection, schedule: Q04DX003 (ip), vehicle: saline with Tween-80) 272 % of control (2×) and 207 % of control; (dose: 40.0 mg/kg/injection, schedule: Q04DX003 (ip), vehicle: saline with Tween-80) 157 % of control; (dose: 60.0 mg/kg/injection, schedule: Q04DX003 (ip), vehicle: saline with Tween-80) 119 % of control.
As to `CC(=O)OCC1OC(O)C(NC(=O)C(F)(F)F)C(OC(C)=O)C1OC(C)=O` (centres undefined), the T/C reads like this: (dose: 12.5 mg/kg/injection, schedule: Q04DX003 (ip), vehicle: saline) 118 % of control; (dose: 12.5 mg/kg/injection, schedule: Q## X003 (ip), vehicle: saline) 104 % of control; (dose: 25.0 mg/kg/injection, schedule: Q## X003 (ip), vehicle: saline) 119 % of control.
For `COc1ccc2c(c1C)CCC1(CO)CC(C)=CCC21` (centres undefined), the T/C (dose: 100.0 mg/kg/injection, schedule: Q01DX001 (ip), vehicle: saline sonified) was 90 % of control; the T/C (dose: 200.0 mg/kg/injection, schedule: Q01DX001 (ip), vehicle: saline sonified) is 90 % of control; the T/C (dose: 400.0 mg/kg/injection, schedule: Q01DX001 (ip), vehicle: saline sonified) was 86 % of control.
As to `NC(=O)CC(NC(=O)CCl)C(=O)O` (centres undefined), the T/C by setting is: under setting [4], 90 % of control; under setting [5], 90 % of control; under setting [6], 86 % of control.
Regarding `C=C1C(=O)OC2C1C(OC(=O)/C(C)=C/CO)C/C(C)=C/CCC1(CO)OC21` (centres undefined), the T/C (dose: 0.5 mg/kg/injection, schedule: Q01DX009 (ip), vehicle: Klucel (hydroxypropylcellulose) (HPC)) was 97 % of control; the T/C (dose: 1.0 mg/kg/injection, schedule: Q01DX009 (ip), vehicle: Klucel (hydroxypropylcellulose) (HPC)) is 94 % of control; the T/C (dose: 2.0 mg/kg/injection, schedule: Q01DX009 (ip), vehicle: Klucel (hydroxypropylcellulose) (HPC)) is 101 % of control; the T/C (dose: 4.0 mg/kg/injection, schedule: Q01DX009 (ip), vehicle: Klucel (hydroxypropylcellulose) (HPC)) was 100 % of control.
For the compound `CC[C@@]1(O)C[C@H](OC2CC(N(C)C)C(O)C(C)O2)c2c(cc3c(c2O)C(=O)c2c(O)ccc(O)c2C3=O)[C@H]1C(=O)OC` (some centres undefined), under “dose: 20.0 mg/kg/injection, schedule: Q04DX003 (ip), vehicle: other”, the T/C is 157 % of control.
